These results are taken from patent publication US20050272784A1 (priority 2004, published 2005).

pIC50: −log10 of the molar value.

As a reminder, the pIC50 is the IC50 on a negative log10 scale, so that one unit is a factor of ten.

For the experiment, the system named is SPI1 type III protein secretion system (SopE'-'Bla secretion). The experiment can be described thus: Primary assay: Type III protein secretion of the chimeric SopE'-'Bla polypeptide by Salmonella enterica. The settings on record: read-out: SopE IC50. In kind it is cell-based. The text has this:
Primary assay: Type III protein secretion of the chimeric SopE′-'Bla polypeptide by Salmonella enterica. This procedure is a cell-based assay that measures the type III-dependent secretion by Salmonella enterica of a plasmid-encoded chimeric polypeptide whose synthesis can be regulated, and which is endowed with an enzymatic activity that can be monitored […] by hydrolysis of a substrate that is unable to penetrate into the bacterial cytoplasm within the time constraints of the reaction. Thus, the colorimetric reaction is not influenced by SopE′-'Bla polypeptide in the bacterial cytoplasm. Instead, it effectively measures the amount of polypeptide that has been secreted from the S. enterica cytoplasm to the extracellular medium via type III system protein secretion.
The SopE′-' Bla recombinant polypeptide consists of two functionally distinct domains spliced together. The N-terminus domain is encoded by a polynucleotide region specifying the signal for type III secretion of the SopE polypeptide of S. enterica, an effector of the SPI1 type III protein secretion system. The C-terminus domain of SopE′-'Bla consists of a 263 amino acid peptide sequence that corresponds to the TEM-1 β-lactamase expressed by plasmid pBR322 but without its N-terminal signal sequence. The TEM-1 β-lactamase part of the SopE′-'Bla chimeric polypeptide is used as a reporter enzyme. It is capable of hydrolyzing nitrocefin resulting in a product whose accumulation can be monitored by colorimetric detection. The secretion of the SopE′-'Bla chimeric polypeptide from the cytoplasm to the extracellular medium is dependent on type III protein secretion.
For this procedure, cells grown under conditions known to favor a functional SPI1 secretion system are induced for expression of the SopE′-'Bla protein and grown either in the presence or in the absence of putative inhibitors for determined time. Nitrocefin is then added to the various cultures and its hydrolysis are used for quantitation. An inhibitor of Type III protein secretion is generally a compound that reduces the signal of the enzymatic reaction by decreasing the amount of SopE′-'Bla secreted into the extracellular medium.
On to `O=C(N[C@@H](CSCc1ccccc1)C(=O)O)c1nc(-c2ccc(C(F)(F)F)cc2)sc1-c1ccc(-c2ccccc2)cc1` [Compound 2, (R)-3-Benzylsulfanyl-2-{[5-biphenyl-4-yl-2-(4-trifluoromethylphenyl)thiazole-4-carbonyl]amino}propionic acid], for which the pIC50 is 4.78. Under `O=C(N[C@@H](COCc1ccccc1)C(=O)O)c1nc(-c2ccc(-c3ccccc3)cc2)oc1-c1ccc(Cl)c(Cl)c1` [Compound 6, (S)-3-Benzyloxy-2-{[2-biphenyl-4-yl-5-(3,4-dichlorophenyl)oxazole-4-carbonyl]amino}propionic acid] stands 4.59. Under `O=C(N[C@@H](CSCc1ccccc1)C(=O)O)c1nc(-c2ccc(C(F)(F)F)cc2)oc1-c1cnc2ccccc2n1` [Compound 11, (R)-3-Benzylsulfanyl-2-{[5-quinoxalin-2-yl-2-(4-trifluoromethylphenyl)oxazole-4-carbonyl]amino}propionic acid] stands 4.37; under `O=C(N[C@@H](CSCc1ccccc1)C(=O)O)c1nc(-c2ccc(C(F)(F)F)cc2)oc1-c1ccc(-c2ccsc2)cc1` [Compound 20, (R)-3-Benzylsulfanyl-2-{[5-(4-thien-3-yl-phenyl)-2-(4-trifluoromethylphenyl)oxazole-4-carbonyl]amino}propionic acid], 5.48. Under `O=C(N[C@@H](CSCc1ccccc1)C(=O)O)c1nc(-c2ccc(C(F)(F)F)cc2)oc1-c1ccc(-c2nccs2)cc1` [Compound 21, (R)-3-Benzylsulfanyl-2-{[5-(4-thiazol-2-yl-phenyl)-2-(4-trifluoromethylphenyl)oxazole-4-carbonyl]amino}propionic acid] stands 5.51. In the case of `O=C(N[C@@H](COCc1ccccc1)C(=O)O)c1nc(-c2ccc(C(F)(F)F)cc2)oc1-c1cccnc1Cl` [Compound 24, (S)-3-Benzyloxy-2-{[5-(2-chloropyridin-3-yl)-2-(4-trifluoromethylphenyl)oxazole-4-carbonyl]amino}propionic acid], the pIC50 was 4.09. With `O=C(N[C@@H](CSCc1ccccc1)C(=O)O)c1nc(-c2ccc(C(F)(F)F)cc2)oc1-c1cccnc1Cl` [Compound 25, (R)-3-Benzylsulfanyl-2-{[5-(2-chloropyridin-3-yl)-2-(4-trifluoromethylphenyl)oxazole-4-carbonyl]amino}propionic acid] the figure was 4.20.

As to `O=C(N[C@@H](CSCc1ccccc1)C(=O)O)c1nc(-c2ccc(C(F)(F)F)cc2)oc1-c1ccc2ccccc2n1` [Compound 26, (R)-3-Benzylsulfanyl-2-{[5-quinolin-2-yl-2-(4-trifluoromethylphenyl)oxazole-4-carbonyl]amino}propionic acid], the negative logarithm of the IC50 (pIC50) is 5.24. As to `O=C(N[C@@H](Cc1ccc(Cl)cc1)C(=O)O)c1nc(-c2ccc(C(F)(F)F)cc2)oc1-c1ccc2ccccc2n1` [Compound 28, (S)-3-(4-Chlorophenyl)-2-{[5-quinolin-2-yl-2-(4-trifluoromethylphenyl)oxazole-4-carbonyl]amino}propionic acid], the negative logarithm of the IC50 (pIC50) is 5.44. With `O=C(N[C@@H](C[S+]([O-])Cc1ccccc1)C(=O)O)c1nc(-c2ccc(C(F)(F)F)cc2)oc1-c1cccnc1N1CCCCC1` (stereo partly drawn) [Compound 30, (R)-3-Phenylmethanesulfinyl-2-{[5-(3,4,5,6-tetrahydro-2H-[1,2′]bipyridin-3′-yl)-2-(4-trifluoromethylphenyl)oxazole-4-carbonyl]amino}propionic acid] the figure was 4.53. On to `O=C(N[C@@H](CS(=O)(=O)Cc1ccccc1)C(=O)O)c1nc(-c2ccc(C(F)(F)F)cc2)oc1-c1cccnc1N1CCCCC1` [Compound 31, (R)-3-Phenylmethanesulfonyl-2-{[5-(3,4,5,6-tetrahydro-2H-[1,2′]bipyridin-3′-yl)-2-(4-trifluoromethylphenyl)oxazole-4-carbonyl]amino}propionic acid], for which the negative logarithm of the IC50 (pIC50) was 4.15. Under `CC(=O)N1CCN(c2ncccc2-c2oc(-c3ccc(C(F)(F)F)cc3)nc2C(=O)NC(Cc2ccc(Cl)cc2)C(=O)O)CC1` (stereo not drawn) [Compound 32, 2-{[5-[2-(4-Acetylpiperazin-1-yl)pyridin-3-yl]-2-(4-trifluoromethylphenyl)oxazole-4-carbonyl]amino}-3-(4-chlorophenyl)propionic acid] stands 4.11; under `O=C(NC(CSCc1ccccc1)C(=O)O)c1nc(-c2ccc(Oc3ccccc3)cc2)oc1-c1ccc(Cl)nc1Cl` (stereo not drawn) [Compound 36, 3-Benzylsulfanyl-2-{[5-(2,6-dichloropyridin-3-yl)-2-(4-phenoxyphenyl)oxazole-4-carbonyl]amino}propionic acid], 5.48. With `O=C(NC(Cc1ccc(Cl)cc1)C(=O)O)c1nc(-c2ccc(Oc3ccccc3)cc2)oc1-c1ccc(Cl)nc1Cl` (stereo not drawn) [Compound 38, 3-(4-Chlorophenyl)-2-{[5-(2,6-dichloropyridin-3-yl)-2-(4-phenoxyphenyl)oxazole-4-carbonyl]amino}propionic acid], the negative logarithm of the IC50 (pIC50) is 5.62.

Turning to `O=C(N[C@@H](CSCc1ccccc1)C(=O)O)c1nc(-c2ccc(Oc3ccccc3)cc2)oc1-c1cnc(Cl)c(Cl)c1` [Compound 39, (R)-3-Benzylsulfanyl-2-{[5-(5,6-dichloropyridin-3-yl)-2-(4-phenoxyphenyl)oxazole-4-carbonyl]amino}propionic acid], the negative logarithm of the IC50 (pIC50) is 5.04.

As for `O=C(N[C@@H](COCc1ccccc1)C(=O)O)c1nc(-c2ccc(Oc3ccccc3)cc2)oc1-c1cnc(Cl)c(Cl)c1` [Compound 40, (S)-3-Benzyloxy-2-{[5-(5,6-dichloropyridin-3-yl)-2-(4-phenoxyphenyl)oxazole-4-carbonyl]amino}propionic acid], the pIC50 was 5.28.

Turning to `O=C(N[C@@H](COCc1ccccc1)C(=O)O)c1nc(-c2ccc(-c3ccccc3)cc2)oc1-c1cnc(Cl)c(Cl)c1` [Compound 44, (S)-3-Benzyloxy-2-{[2-biphenyl-4-yl-5-(5,6-dichloropyridin-3-yl)oxazole-4-carbonyl]amino}propionic acid], the pIC50 is 5.48.

`Cn1cc(-c2oc(-c3ccc(C(F)(F)F)cc3)nc2C(=O)N[C@@H](CSCc2ccccc2)C(=O)O)c2ccccc21` [Compound 46, (R)-3-Benzylsulfanyl-2-{[5-(1-methyl-1H-indol-3-yl)-2-(4-trifluoromethylphenyl)oxazole-4-carbonyl]amino}propionic acid]: the negative-log IC50 (pIC50) was 4.33. Consider `Cn1cc(-c2oc(-c3ccc(C(F)(F)F)cc3)nc2C(=O)N[C@@H](COCc2ccccc2)C(=O)O)c2ccccc21` [Compound 47, (S)-3-Benzyloxy-2-{[5-(1-methyl-1H-indol-3-yl)-2-(4-trifluoromethylphenyl)oxazole-4-carbonyl]amino}propionic acid], for which the negative logarithm of the IC50 (pIC50) was 4.27. With `N=C(NO)c1ccc(-c2oc(-c3ccc(C(F)(F)F)cc3)nc2C(=O)N[C@@H](CSCc2ccccc2)C(=O)O)cc1` [Compound 49, (R)-3-Benzylsulfanyl-2-{[5-[4-(N-hydroxycarbamimidoyl)phenyl]-2-(4-trifluoromethylphenyl)oxazole-4-carbonyl]amino}propionic acid] the figure was 4.46. With `O=C(N[C@@H](CSCc1ccccc1)C(=O)O)c1nc(-c2ccc(C(F)(F)F)cc2)oc1-c1ccc(-c2noc(C(F)(F)F)n2)cc1` [Compound 50, (R)-3-Benzylsulfanyl-2-{[5-[4-(5-trifluoromethyl[1,2,4]oxadiazol-3-yl)phenyl]-2-(4-trifluoromethylphenyl)oxazole-4-carbonyl]amino}propionic acid] the figure was 4.19.
